According to patent US6514981B1, “Methods of modulating tyrosine protein kinase function with indolinone compounds” (Sugen, Inc., priority 1998, dated 2003):

Key:
EGFR = EGFR (Homo sapiens, UniProt P00533); assay: EGF receptor phosphorylation assay in cells (ELISA); type: cell-based; design: expressed in transfected cells; host or cells: NIH 3T3/C7 cell line; conditions: NIH 3T3/C7 cells, EGF stimulation
Protocol: EGF Receptor kinase activity in cells genetically engineered to express human EGF-R was measured as described below: 1. Coat ELISA plates (Coming, 96 well, Cat. #25805-96) wit 05-101 antibody at 0.5 μg per well in PBS, 150 μL final volume/well, and store overnight at 4° C. Coated plates are good for up to 10 days when stored at 4° C. 1. NIH 3T3/C7 cell line (Honegger, et al., Cell 51:199-209, 1987) can be use for this assay. 3. Resuspend cells in seeding medium (DMEM, 0.5% bovine serum), and count the cells using trypan blue. Viability above 90% is acceptable. Seed cells in DMEM medium (0.5% bovine serum) at a density of 10,000 cells per well, 100 μL per well, in a 96 well microtiter plate. Incubate seeded cells in 5% CO2 at 37° C. for about 40 hours. 1. Check seeded cells for contamination using an inverted microscope. Dilute drug stock (10 mg/mL in DMSO) 1:10 in DMEM medium, then transfer 5 μL to a test well for a final drug dilution of 1:200 and a final DMSO concentration of […]. […] The maximal phosphotyrosine signal is determined by subtracting the value of the negative controls from the positive controls. The percent inhibition of phosphotyrosine content for extract-containing wells is then calculated, after subtraction of the negative controls. The IC50 values measured in the EGF receptor phosphorylation assay for the compound of formula VI are depicted in Table 3: […]

IGF-1 receptor = target: T1, IGF-1 receptor (Homo sapiens, UniProt P08069); assay: IGF-1 receptor phosphorylation assay in cells (ELISA); type: cell-based; conditions: 3T3-L1/IGF-1R cells, IGF-1 stimulation
T1 construct: expressed in transfected cells; host or cells: 3T3-L1/IGF-1R (also written NIH3T3/IGF-1R)
T1 sequence (P08069 31-1367): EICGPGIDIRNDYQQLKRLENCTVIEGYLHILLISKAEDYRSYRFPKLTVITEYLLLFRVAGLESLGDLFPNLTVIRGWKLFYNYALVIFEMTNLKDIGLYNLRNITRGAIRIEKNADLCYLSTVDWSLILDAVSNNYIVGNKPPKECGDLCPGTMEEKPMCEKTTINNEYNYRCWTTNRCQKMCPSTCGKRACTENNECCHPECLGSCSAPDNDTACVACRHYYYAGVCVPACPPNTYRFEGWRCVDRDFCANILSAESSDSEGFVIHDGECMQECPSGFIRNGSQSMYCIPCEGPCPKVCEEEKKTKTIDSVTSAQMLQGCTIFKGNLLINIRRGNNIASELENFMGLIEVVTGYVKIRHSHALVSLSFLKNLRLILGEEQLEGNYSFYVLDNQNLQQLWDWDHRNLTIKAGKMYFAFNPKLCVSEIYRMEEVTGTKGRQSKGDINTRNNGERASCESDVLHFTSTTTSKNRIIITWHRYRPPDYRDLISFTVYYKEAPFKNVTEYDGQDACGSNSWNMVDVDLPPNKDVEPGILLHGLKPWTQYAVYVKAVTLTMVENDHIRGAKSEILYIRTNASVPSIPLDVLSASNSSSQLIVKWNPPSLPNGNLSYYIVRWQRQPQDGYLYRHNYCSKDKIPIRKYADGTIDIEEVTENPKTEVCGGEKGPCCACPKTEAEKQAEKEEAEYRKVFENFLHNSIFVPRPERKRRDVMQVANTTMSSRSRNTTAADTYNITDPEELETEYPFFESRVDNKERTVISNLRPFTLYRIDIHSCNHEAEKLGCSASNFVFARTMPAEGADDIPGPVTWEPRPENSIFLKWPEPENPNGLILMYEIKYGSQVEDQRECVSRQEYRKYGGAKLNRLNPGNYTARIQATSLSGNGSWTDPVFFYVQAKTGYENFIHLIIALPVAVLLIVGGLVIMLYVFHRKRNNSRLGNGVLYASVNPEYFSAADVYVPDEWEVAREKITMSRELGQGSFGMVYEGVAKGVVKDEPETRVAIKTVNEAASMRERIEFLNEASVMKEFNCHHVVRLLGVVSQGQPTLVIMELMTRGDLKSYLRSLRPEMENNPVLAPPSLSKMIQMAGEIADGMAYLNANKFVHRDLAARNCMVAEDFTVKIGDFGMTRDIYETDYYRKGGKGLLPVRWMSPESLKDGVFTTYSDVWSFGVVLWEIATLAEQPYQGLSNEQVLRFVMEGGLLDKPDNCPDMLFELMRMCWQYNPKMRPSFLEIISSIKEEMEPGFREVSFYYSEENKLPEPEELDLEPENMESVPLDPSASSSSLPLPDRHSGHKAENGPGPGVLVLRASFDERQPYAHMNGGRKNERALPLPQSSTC
Protocol: The following protocol was used to measure phosphotyrosine level on IGF-1 receptor, which indicates IGF-1 receptor tyrosine kinase activity.
a. The cell line used in this assay is 3T3-L1/IGF-1R, a cell line genetically engineered to overexpresses IGF-1 receptor.
2. Resuspend the cells in fresh DMEM+10% FBS+2mM L-Glutamine, and transfer to 96-well tissue culture plate (Corning, 250806-96) at 20,000 cells/well (100 μL/well). Incubate for 1 day then replace medium to serum-free medium (90/μL) and incubate in 5% CO2 and 37° C. overnight.
1. Coat the ELISA plate (Corning 25805-96) with Anti-IGF-1R Antibody at 0.5 μg/well in 100 μL PBS at least 2 hours.
2. Dilute drug stock (in 100% DMSO) 1:10 with DMEM in 96-well poly-propylene plate, and transfer 10 μL/well of this solution to the cells to achieve final drug dilution 1:100, and final DMSO concentration of 1.0%. Incubate the cells in 5% C02 at 37° C. for 2 hours.
4. After drug incubation for two hours, transfer 10 μL/well of 200 nM IGF-1 Ligand m PBS to the cells (Final Conc.=20 nM), and incubate at 5% CO2 at 37° C. for 10 minutes.
5. Remove media and add 100 μL/well HNTG* and shake for 10 minutes. Look at cells under microscope to see if they are adequately lysed.
6. […]
The IC50 values measured in the IGF-1 receptor phosphorylation assay for the compound of formula VI are depicted in Table 4: […]

EGFR, sequence (P00533 25-1210): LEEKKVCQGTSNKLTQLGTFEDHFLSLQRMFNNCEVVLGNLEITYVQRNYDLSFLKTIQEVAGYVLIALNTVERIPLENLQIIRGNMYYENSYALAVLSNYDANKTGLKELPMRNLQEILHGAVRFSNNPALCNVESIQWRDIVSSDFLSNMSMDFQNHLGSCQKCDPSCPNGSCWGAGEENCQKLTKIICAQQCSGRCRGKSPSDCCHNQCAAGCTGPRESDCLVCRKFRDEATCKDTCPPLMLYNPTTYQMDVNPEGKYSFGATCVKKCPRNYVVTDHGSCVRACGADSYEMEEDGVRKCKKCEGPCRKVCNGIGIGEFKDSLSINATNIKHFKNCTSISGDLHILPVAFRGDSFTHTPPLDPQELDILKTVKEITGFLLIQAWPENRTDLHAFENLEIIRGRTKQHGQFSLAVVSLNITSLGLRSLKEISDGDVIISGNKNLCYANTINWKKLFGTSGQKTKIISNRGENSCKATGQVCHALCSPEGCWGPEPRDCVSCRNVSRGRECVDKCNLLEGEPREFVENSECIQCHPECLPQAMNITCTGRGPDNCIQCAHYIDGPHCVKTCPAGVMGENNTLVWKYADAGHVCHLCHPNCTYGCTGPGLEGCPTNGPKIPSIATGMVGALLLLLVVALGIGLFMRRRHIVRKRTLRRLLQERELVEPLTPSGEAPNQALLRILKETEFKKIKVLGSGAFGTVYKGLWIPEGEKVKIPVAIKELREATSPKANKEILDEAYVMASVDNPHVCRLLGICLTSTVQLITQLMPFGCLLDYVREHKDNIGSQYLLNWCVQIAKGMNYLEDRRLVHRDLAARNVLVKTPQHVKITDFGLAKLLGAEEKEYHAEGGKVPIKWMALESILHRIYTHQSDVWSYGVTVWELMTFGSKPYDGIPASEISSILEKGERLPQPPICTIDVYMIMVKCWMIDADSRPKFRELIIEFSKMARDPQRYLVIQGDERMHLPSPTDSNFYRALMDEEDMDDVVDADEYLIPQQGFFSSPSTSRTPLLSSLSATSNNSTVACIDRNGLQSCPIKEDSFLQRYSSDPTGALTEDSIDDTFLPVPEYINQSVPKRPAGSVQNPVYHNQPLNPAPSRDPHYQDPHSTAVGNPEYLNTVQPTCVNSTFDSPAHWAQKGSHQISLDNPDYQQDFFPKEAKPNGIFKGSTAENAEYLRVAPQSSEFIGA

IC50 (EGFR): > 100 µM
IC50 (IGF-1 receptor): 8.52 µM
SMILES: Cc1cc(/C=C2/C(=O)Nc3ccccc32)c(C)c2c1[nH]c1ccccc12 [VI]
